Data as given in US20240409501A1, “CYRSTALLINE FORMS OF RIP1 INHIBITOR” (SIRONAX LTD., priority 2021, published 2024).
≈ marks a conversion by molar mass, not a printed value. Entries after “also recorded” stand apart in the source; their conditions may differ.

How the values were obtained:
Assay type in all cases: physicochemical
[1] = Approximate solubility in 20 solvent systems at RT
Protocol: Approximate solubility of N-(3,5-difluorobenzyl)-N-hydroxy-2,2-dimethylbutanamide (817506-01-A) was measured in 20 solvent systems at RT. Approximately 2 mg of the sample was added into a 3-mL glass vial. Solvents as shown in Table 36 were then added stepwise (50/50/200/700/1000 μL) into the vials until the solids were dissolved visually or a total volume of 2 mL was reached. Solubility results summarized in Table 36 were used to guide the solvent selection in preparing the solid forms as disclosed herein.

[2] = Photo stability under white light and ultraviolet (ICH guideline)
Protocol: Photo stability of Type A (817506-48-A2) was assessed under both white light (1,200,000 Lux-hrs) and ultraviolet (200 W·hrs/m^2) conditions according to the ICH guideline. […] Only an endotherm at about 95° C. was observed on the DSC curves (FIGS. 42-43).

[3] = Equilibrium solubility of Type A in H2O at RT
Protocol: Equilibrium solubility of Type A in H2O was measured at RT. Specifically, 10.0 mg of a Type A sample (817506-48-A2) was suspended into 1 mL of H2O (˜1000 rpm) at RT. After 24 hrs, the suspension was centrifuged (10000 rpm, 5 min, RT) followed by filtration (0.45 μm PTFE membrane). The supernatant (first few drops were discarded) was analyzed for HPLC solubility and pH, and the residual solids were used for XRPD analysis.
(§1) An Agilent 1290 UPLC with DAD detector and Agilent 1260 HPLC with VWD detector were use and detailed chromatographic conditions for purity and solubility analysis are listed in Table 42 and Table 43.

[4] = Hygroscopicity, DVS isotherm at 25° C. between 0 and 95% RH
Protocol: To investigate the solid from stability as a function of humidity, a DVS isotherm plot of Type A (817506-48-A2) was collected at 25° C. between 0 and 95% RH. […] (onset) after the DVS test.
DVS was measured Via an SMS (Surface Measurement Systems) DVS Intrinsic. The relative humidity at 25° C. was calibrated against deliquescence point of LiCl. Mg(NO3)2 and KCl.

[5] = Solid state stability (XRPD, DSC, HPLC after storage); settings: for % of Initial: HPLC purity
Protocol: To evaluate the solid state stability, a Type A sample (817506-48-A2) was stored under 80° C. for one day, and 25° C./60% RH and 40° C./75% RH for one week each. […] DSC characterization results were shown from FIG. 35 to FIG. 37. Only one endotherm at about 95° C. was observed, indicating the solids under all the conditions were pure Type A.
as §1

[6] = Form conversion of Type C on vacuum drying (XRPD); settings: vacuum dried at 50° C.
Source text: Type C of N-(3,5-difluorobenzyl)-N-hydroxy-2,2-dimethylbutanamide (817506-10-A10) was obtained via liquid vapor diffusion of a DMSO solution of a starting material (817506-01-A) in H2O atmosphere.

[7] = White light (1,200,000 Lux-hrs)

Q: What does the source list for `CCC(C)(C)C(=O)N(O)Cc1cc(F)cc(F)c1` [N-(3,5-difluorobenzyl)-N-hydroxy-2,2-dimethylbutanamide]?
A: solubility ([1]; organic solvent or mixture, thermodynamic from solid, 1,4-Dioxane, RT): > 46 mg/mL; solubility ([1]; organic solvent or mixture, thermodynamic from solid, 2-MeTHF, RT): 2.2 to 7.3 mg/mL (≈ 8.55 to 28.4 mM); solubility ([1]; organic solvent or mixture, thermodynamic from solid, ACN, RT): > 50 mg/mL; solubility ([1]; organic solvent or mixture, thermodynamic from solid, Acetone, RT): > 46 mg/mL; solubility ([1]; organic solvent or mixture, thermodynamic from solid, CHCl3, RT): > 50 mg/mL; solubility ([1]; organic solvent or mixture, thermodynamic from solid, DCM, RT): > 50 mg/mL; solubility ([1]; organic solvent or mixture, thermodynamic from solid, DMAc, RT): 21 to 42 mg/mL (≈ 81.6 to 163 mM); solubility ([1]; organic solvent or mixture, thermodynamic from solid, DMSO, RT): > 42 mg/mL; solubility ([1]; organic solvent or mixture, thermodynamic from solid, EtOAc, RT): > 44 mg/mL; solubility ([1]; organic solvent or mixture, thermodynamic from solid, EtOH, RT): > 40 mg/mL; solubility ([1]; organic solvent or mixture, thermodynamic from solid, IPA, RT): > 42 mg/mL; solubility ([1]; organic solvent or mixture, thermodynamic from solid, IPAC, RT): > 50 mg/mL; solubility ([1]; organic solvent or mixture, thermodynamic from solid, MIBK, RT): > 50 mg/mL; solubility ([1]; organic solvent or mixture, thermodynamic from solid, MTBE, RT): 2.3 to 7.7 mg/mL (≈ 8.94 to 29.9 mM); solubility ([1]; organic solvent or mixture, thermodynamic from solid, MeOH, RT): > 46 mg/mL; solubility ([1]; organic solvent or mixture, thermodynamic from solid, NMP, RT): 2.4 to 48 mg/mL (≈ 9.33 to 187 mM); solubility ([1]; organic solvent or mixture, thermodynamic from solid, THF, RT): 25 to 50 mg/mL (≈ 97.2 to 194 mM); solubility ([1]; organic solvent or mixture, thermodynamic from solid, Toluene, RT): 20 to 40 mg/mL (≈ 77.7 to 155 mM); solubility ([1]; organic solvent or mixture, thermodynamic from solid, n-Heptane, RT): < 1 mg/mL; solubility ([1]; water, thermodynamic from solid, H2O, RT): < 1.3 mg/mL

Q: Which Form ([2]; UV (200 W·hrs/m^2)) does the source give for `CCC(C)(C)C(=O)N(O)Cc1cc(F)cc(F)c1` [Type A, N-(3,5-difluorobenzyl)-N-hydroxy-2,2-dimethylbutanamide] here?
A: Its Form is “Type A”.

Q: And the “Purity (area %)” value ([2]; UV (200 W·hrs/m^2))?
A: The value was 100.0 area %.

Q: What about the Form [2, 7] of the same compound?
A: The Form was “Type A”.

Q: What about the “Purity (area %)” value [2, 7] of the same compound?
A: The value was 100.0 area %.

Q: What about the “form change after photo stability evaluation” value ([2]; both white light and ultraviolet, XRPD and DSC) of the same compound?
A: Its value is “No crystalline form change or HPLC purity decrease; also recorded: no form change”.

Q: And the “purity decrease after photo stability evaluation” value ([2]; white light and ultraviolet, HPLC)?
A: The value was “no purity decrease”.

Q: What about the Form change ([3]; after suspending in H2O at RT for about 24 hrs, XRPD of residual solids) of the same compound?
A: The Form change was “no crystalline type change and no form change and No”.

Q: What about the pH ([3]; supernatant after suspension in H2O at RT for 24 hrs) of the same compound?
A: Its pH is 8.7.

Q: And the solubility at 24 h ([3]; water, thermodynamic from solid, equilibrium solubility in H2O, RT, 24 hrs, HPLC)?
A: The solubility at 24 h was roughly 0.15 mg/mL (≈ 0.583 mM).

Q: What about the water uptake (DVS plot) ([4]; 25° C./80VRH) of the same compound?
A: The water uptake (DVS plot) was 0.1%.

Q: And the “water uptake (DVS)” value ([4]; 80% RH/25° C.)?
A: Its value is “about 0.10%”.

Q: And the hygroscopicity ([4]; DVS at 25° C.)?
A: The hygroscopicity was “non-hygroscopic”.

Q: What about the “form change after the DVS test” value ([4]; XRPD before and after DVS) of the same compound?
A: The value was “no form change”.

Q: What about the “Final Form” value ([5]; 25° C./60% RH/1 w) of the same compound?
A: The value was “Type A”.

Q: And the “% of Initial” value ([5]; 25° C./60% RH/1 w)?
A: Its value is 100.0%.

Q: What about the “Final Form” value ([5]; 40° C./75% RH/1 w) of the same compound?
A: Its value is “Type A”.

Q: And the “% of Initial” value ([5]; 40° C./75% RH/1 w)?
A: The value was 100.0%.

Q: What about the “Final Form” value ([5]; 80° C./1 d) of the same compound?
A: Its value is “Type A”.

Q: What about the “% of Initial” value ([5]; 80° C./1 d) of the same compound?
A: The value was 100.0%.

Q: And the “form change or decrease in purity” value ([5]; all conditions: 80° C. one day, 25° C./60% RH and 40° C./75% RH one week each)?
A: The value was “No crystalline form change or HPLC purity decrease; also recorded: No form change or decrease in purity”.

Q: With `CCC(C)(C)C(=O)N(O)Cc1cc(F)cc(F)c1` [Type C, N-(3,5-difluorobenzyl)-N-hydroxy-2,2-dimethylbutanamide] as the compound, how does the form after drying [6] read?
A: Its form after drying is “converted to Type A”.
